Measurements reported in US20210198277A1, “AMINE-SUBSTITUTED ARYL OR HETEROARYL COMPOUNDS” (Epizyme, Inc., priority 2016, published 2021).

What was measured:
[1] = target: T1, human EHMT2 913-1193 (Homo sapiens, UniProt Q96KQ7); assay: EHMT2 enzyme assay on histone peptide substrate (EHMT2 PEP); format: biochemical; settings: Table III; read-out: EHMT2 PEP (IC50 μM)
T1 construct: recombinant purified human EHMT2 913-1193, Viva; purchased Viva
T1 sequence (Q96KQ7 913-1193): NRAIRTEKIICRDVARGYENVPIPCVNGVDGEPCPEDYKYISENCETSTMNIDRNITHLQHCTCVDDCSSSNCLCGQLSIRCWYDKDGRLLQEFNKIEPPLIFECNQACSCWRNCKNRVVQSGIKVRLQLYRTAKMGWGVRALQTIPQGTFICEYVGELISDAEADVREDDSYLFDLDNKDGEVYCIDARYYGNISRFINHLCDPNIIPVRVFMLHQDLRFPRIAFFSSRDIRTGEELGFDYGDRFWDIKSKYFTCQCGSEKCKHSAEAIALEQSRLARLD
Outline: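 Radiometric methyltransferase read-out: ^3H-methyl transfer from ^3H-SAM onto biotinylated histone peptide, captured on streptavidin Flashplates after 60 min reaction at room temperature. Enzyme 0.031 nM, preincubated 30 min with inhibitor; buffer 20 mM Bicine pH 7.5 with 1 mM TCEP; top compound concentration 50 μM final, 2% DMSO.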

[2] = target: T2, EHMT1 (Homo sapiens, UniProt Q9H9B1); assay: EHMT1 enzyme assay on peptide substrate (EHMT1 PEP); format: biochemical; settings: Table III; read-out: EHMT1 PEP (IC50 μM)
T2 sequence (Q9H9B1 1-1298): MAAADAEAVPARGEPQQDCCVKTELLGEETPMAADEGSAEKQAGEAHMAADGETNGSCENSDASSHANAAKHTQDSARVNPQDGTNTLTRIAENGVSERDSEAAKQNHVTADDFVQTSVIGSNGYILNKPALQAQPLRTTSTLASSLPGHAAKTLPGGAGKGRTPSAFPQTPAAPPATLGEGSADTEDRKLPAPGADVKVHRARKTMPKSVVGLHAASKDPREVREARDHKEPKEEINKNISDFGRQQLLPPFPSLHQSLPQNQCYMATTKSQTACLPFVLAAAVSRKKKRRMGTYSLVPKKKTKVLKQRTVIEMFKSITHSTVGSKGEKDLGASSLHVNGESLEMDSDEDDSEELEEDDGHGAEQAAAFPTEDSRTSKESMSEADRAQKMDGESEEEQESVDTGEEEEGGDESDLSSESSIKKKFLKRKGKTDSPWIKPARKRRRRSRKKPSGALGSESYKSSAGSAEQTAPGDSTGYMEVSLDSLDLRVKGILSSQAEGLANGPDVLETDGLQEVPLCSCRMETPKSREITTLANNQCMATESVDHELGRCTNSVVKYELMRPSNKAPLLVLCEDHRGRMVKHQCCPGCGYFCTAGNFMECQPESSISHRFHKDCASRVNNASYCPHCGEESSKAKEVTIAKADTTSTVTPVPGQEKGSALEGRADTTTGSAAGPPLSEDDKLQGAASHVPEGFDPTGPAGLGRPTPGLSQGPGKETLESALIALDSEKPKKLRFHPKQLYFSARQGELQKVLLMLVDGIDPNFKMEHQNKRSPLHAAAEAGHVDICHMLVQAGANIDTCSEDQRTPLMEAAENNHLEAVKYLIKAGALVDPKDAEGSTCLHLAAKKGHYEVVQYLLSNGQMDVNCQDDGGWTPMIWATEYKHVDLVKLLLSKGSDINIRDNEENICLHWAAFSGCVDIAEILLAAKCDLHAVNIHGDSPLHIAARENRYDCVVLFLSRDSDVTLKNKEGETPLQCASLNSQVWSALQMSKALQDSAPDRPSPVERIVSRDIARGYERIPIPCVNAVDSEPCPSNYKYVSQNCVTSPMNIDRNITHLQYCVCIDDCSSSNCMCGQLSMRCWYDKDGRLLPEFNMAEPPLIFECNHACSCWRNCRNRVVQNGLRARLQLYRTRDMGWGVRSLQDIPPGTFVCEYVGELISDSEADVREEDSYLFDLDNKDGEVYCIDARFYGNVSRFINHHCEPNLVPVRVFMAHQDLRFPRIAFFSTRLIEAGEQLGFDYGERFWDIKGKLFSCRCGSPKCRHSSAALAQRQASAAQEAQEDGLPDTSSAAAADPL

Row | SMILES | IC50 [1] | IC50 [2]
1 | CNc1cc(C)nc(Nc2ccc(OC)c(OCC3CCN(C)CC3)c2)n1 [Compound 435, N^2-(4-methoxy-3-((1-methylpiperidin-4-yl)methoxy)phenyl)-N^4,6-dimethylpyrimidine-2,4-diamine] | 1 to 10 µM | 1 to 10 µM
2 | CNc1cc(C)nc(Nc2ccc(OC)c(OCC3CCN(CC4CC4)CC3)c2)n1 [Compound 436, N^2-(3-((1-(cyclopropylmethyl)piperidin-4-yl)methoxy)-4-methoxyphenyl)-N^4,6-dimethylpyrimidine-2,4-diamine] | 1 to 10 µM | > 10 µM
3 | CNc1cc(C)nc(Nc2ccc(OC)c(OC3CCN(CC4CC4)CC3)c2)n1 [Compound 443] | > 10 µM | > 10 µM
4 | CCN1CC(COc2cc(Nc3nc(C)cc(NC)n3)ccc2OC)C1 [Compound 444] | < 0.1 µM | < 0.1 µM
5 | COc1ccc(Nc2nc(C)cc(O)n2)cc1OCCCN1CCCC1 [Compound 447, 2-((4-methoxy-3-(3-(pyrrolidin-1-yl)propoxy)phenyl)amino)-6-methylpyrimidin-4-ol] | > 10 µM | > 10 µM
6 | COc1ccc(Nc2cc(C)nc(O)n2)cc1OCCCN1CCCC1 [Compound 448, 4-((4-methoxy-3-(3-(pyrrolidin-1-yl)propoxy)phenyl)amino)-6-methylpyrimidin-2-ol] | > 10 µM | > 10 µM

The next lines start with the values.

Row | IC50 [1] | IC50 [2] | SMILES
7 | > 10 µM | 1 to 10 µM | CNc1ccnc(Nc2ccc(OC)c(OCc3noc(C4CC4)n3)c2)n1 [Compound 433, N^2-(3-((5-cyclopropyl-1,2,4-oxadiazol-3-yl)methoxy)-4-methoxyphenyl)-N^4-methylpyrimidine-2,4-diamine]
8 | > 10 µM | > 10 µM | CNc1ccnc(Nc2ccc(OC)c(OCc3cn(C4CC4)nn3)c2)n1 [Compound 434, N^2-(3-((1-cyclopropyl-1H-1,2,3-triazol-4-yl)methoxy)-4-methoxyphenyl)-N^4-methylpyrimidine-2,4-diamine]
9 | 0.1 to 1 µM | < 0.1 µM | CNc1cc(C)nc(Nc2ccc(OC)c(OCC3CNC3)c2)n1 [Compound 437, N^2-(3-(azetidin-3-ylmethoxy)-4-methoxyphenyl)-N^4,6-dimethylpyrimidine-2,4-diamine]
10 | > 10 µM | > 10 µM | CNc1ccnc(Nc2ccc(OC)c(OCCOC3CCCC3)c2)n1 [Compound 440, N^2-(3-(2-(cyclopentyloxy)ethoxy)-4-methoxyphenyl)-N^4-methylpyrimidine-2,4-diamine]
11 | 0.1 to 1 µM | 0.1 to 1 µM | CNc1cc(COC)nc(Nc2ccc(OC)c(OCCCN3CCCC3)c2)n1 [Compound 441, N^2-(4-methoxy-3-(3-(pyrrolidin-1-yl)propoxy)phenyl)-6-(methoxymethyl)-N^4-methylpyrimidine-2,4-diamine]
12 | < 0.1 µM | < 0.1 µM | CNc1cc(C)nc(Nc2ccc(OC)c(OCC3CN(C)C3)c2)n1 [Compound 442, N^2-(4-methoxy-3-((1-methylazetidin-3-yl)methoxy)phenyl)-N^4,6-dimethylpyrimidine-2,4-diamine]
13 | 0.1 to 1 µM | 0.1 to 1 µM | CNc1cc(C)nc(Nc2ccc(OC)c(OCC3CN(CC4CC4)C3)c2)n1 [Compound 445, N^2-(3-((1-(cyclopropylmethyl)azetidin-3-yl)methoxy)-4-methoxyphenyl)-N^4,6-dimethylpyrimidine-2,4-diamine]
14 | < 0.1 µM | < 0.1 µM | CNc1cc(C)nc(Nc2ccc(OC)c(OCC3CCN(C4CCC4)C3)c2)n1 (stereo not drawn) [Compound 446, N^2-(3-((1-cyclobutylpyrrolidin-3-yl)methoxy)-4-methoxyphenyl)-N^4,6-dimethylpyrimidine-2,4-diamine]
15 | 0.1 to 1 µM | 0.1 to 1 µM | CNc1cc(C)nc(Nc2ccc(OC)c(OCC3CCN(C4COC4)C3)c2)n1 (stereo not drawn) [Compound 449, N^2-(4-methoxy-3-((1-(oxetan-3-yl)pyrrolidin-3-yl)methoxy)phenyl)-N^4,6-dimethylpyrimidine-2,4-diamine]
